From US20100298377A1, “NOVEL SUBSTITUTED INDAZOLES, THE PREPARATION THEREOF AND USE OF SAME IN THERAPEUTICS” (SANOFI-AVENTIS, priority 2007, published 2010)

What was measured:
[1] = molecular target: T1, Human S6K1 (24-421) T412E protein (Homo sapiens, UniProt P23443, T412E); test: Determination of the IC50 for S6K1 (HTRF substrate phosphorylation test); type: biochemical; details: S6K1 activated by PDK1, ATP 30 μM
T1 construct: Human S6K1 (24-421) T412E protein; made in house; host or cells: Sf21 insect cells
T1 sequence (P23443 24-421 T412E): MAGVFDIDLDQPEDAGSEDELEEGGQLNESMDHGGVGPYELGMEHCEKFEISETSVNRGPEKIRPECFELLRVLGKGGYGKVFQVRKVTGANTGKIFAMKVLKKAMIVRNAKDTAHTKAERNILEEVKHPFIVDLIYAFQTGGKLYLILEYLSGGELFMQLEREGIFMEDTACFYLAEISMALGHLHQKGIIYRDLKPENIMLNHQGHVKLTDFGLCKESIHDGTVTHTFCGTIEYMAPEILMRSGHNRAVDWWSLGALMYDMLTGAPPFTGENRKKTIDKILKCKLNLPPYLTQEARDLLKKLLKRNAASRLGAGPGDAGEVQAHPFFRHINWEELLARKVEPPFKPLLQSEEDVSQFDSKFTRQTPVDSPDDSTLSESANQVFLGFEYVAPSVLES
Method: Determination of the IC50 for S6K1
The inhibitory potential of the compounds for S6K1 is evaluated in an enzymatic test of phosphorylation of substrate in HTRF (Homogenous Time-Resolved Fluorescence) format. Human S6K1 (24-421) T412E protein is expressed in sf21 cells and purified by chromatography on a nickel chelate column. It is activated by PDK1.
The test comprises two steps, both performed at RT. The phosphorylation reaction takes place during the first step and the revelation step is performed during the second. […] The final concentrations of compounds thus obtained during the incubation period range from 10 μM to 0.17 nM and the concentration of enzyme is 2 nM. After incubation for 20 minutes, the reaction is stopped and the revelation initiated by addition of 30 μl of a mixture of streptavidin XL 665 Xlent, ref. 611SAXLB Cis bio international, and a europium cryptate-coupled anti-phospho-GSK3 antibody, ref. 64CUSKAZ Cis bio international, dissolved in the revelation buffer (HEPES/NaOH 166.7 mM, EDTA 221.7 mM, KF 667.7 mM, BSA 0.167%, pH 7.0). The reaction takes place in a black half-well plate ref. 3694 Costar.
A mixture of the reaction medium after each addition of reagent is obtained by agitation for a few minutes at 700-1000 rpm on a Heidolph Titramax 100 machine. The reading is taken on a TECAN Ultra Evolution machine after at least one night and up to 3 nights at 4° C. The reading settings are as follows: excitation wavelength 320 nm, emission wavelengths 620 and 665 nm, lag time 150 μs, integration time 500 μs.
For each point, the ΔF % is calculated as follows:
R(Ratio)=counts665 nm/counts620 nm
The IC50 values are calculated by means of the XLfit4 205 equation.

AKT1 = AKT1 (Homo sapiens, UniProt P31749, S473D); test: Determination of the IC50 for AKT1 (HTRF); type: biochemical; details: AKT1 without PH domain, activated by PDK1
AKT1, sequence (P31749 118-480 S473D limits assumed): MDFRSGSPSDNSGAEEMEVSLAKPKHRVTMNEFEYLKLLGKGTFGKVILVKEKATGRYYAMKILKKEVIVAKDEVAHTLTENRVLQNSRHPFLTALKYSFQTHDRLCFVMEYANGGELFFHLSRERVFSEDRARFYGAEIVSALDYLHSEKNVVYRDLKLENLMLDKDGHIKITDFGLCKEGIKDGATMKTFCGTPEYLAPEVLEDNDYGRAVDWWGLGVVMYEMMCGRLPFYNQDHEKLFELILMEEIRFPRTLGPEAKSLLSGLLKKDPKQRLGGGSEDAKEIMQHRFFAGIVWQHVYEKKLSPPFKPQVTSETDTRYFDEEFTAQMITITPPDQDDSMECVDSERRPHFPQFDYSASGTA
Procedure, shortened: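 HTRF assay of AKT1 (S473D) kinase activity on a biotinylated peptide substrate, with 100 μM ATP and 10 μM peptide in the initiating solution.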

[2] = system: MEF-IGF1 murine fibroblast cells; test: IGF1-dependent proliferation of MEF-IGF1 cells via incorporation of [14C]-thymidine; type: cell-based; details: Mus musculus, Fibroblast; [14C]-thymidine incorporation, IGF1 stimulated, 72 hours; read-out: IC50 MEF-IGF
Text: a. Study of the IGF1-Dependent Proliferation of MEF-IGF1 Murine Fibroblast Cells Measured via Incorporation of [14C]-Thymidine
This test is based on the incorporation of [^14C]-thymidine into the DNA of the cells for the S phase of the cell cycle during cell division. The cell line used in this test is the MEF/3T3 Tet-Off Clone 18 line obtained by stable transfection of the human receptor IGF1R in murine MEF/3T3 Tet-Off fibroblasts. To measure the IGF1-dependent cell proliferation, the cells were deprived of serum and cultured for 3 days in the serum-free culture medium in the presence of the growth factor IGF1 which stimulates the proliferation of MEF-IGF1 cells.
Test of Incorporation of [^14C]-Thymidine into MEF-IGF1 Cells
On day 1, the cells were inoculated with 7500 cells per well in Cytostar 96-well microplates (Amersham (GE) RPNQ0162) in 200 μl of EMEM medium (EMEM, Biowhittaker, #BE12-662F) containing 10% foetal calf serum (FCS, TET-BD Biosciences Tet System Approved FBS US-Sourced, #8630-1) and 1% PSG (Penicillin-Streptomycin-Glutamine (PSG), Gibco #10378-016), and incubated at 37° C., 5% CO2, for 24 hours. On day 2, the cells were washed in the FCS-free EMEM culture medium containing 1% PSG, and incubated in 170 μl of this serum-free culture medium at 37° C., 5% CO2, for 24 hours. On day 3, the cells were incubated with 10 μl of IGF1 (2 μg/ml of final concentration; recombinant human IGF-1, R & D Systems, #291-G1), 10 μl (0.1 μCi) of [^14C]-Thymidine (NEN NEC-568) plus 10 μl of increasing concentrations of the test molecules, diluted in dimethyl sulfoxide (DMSO, Sigma D2650). The molecules were added in a volume of 10 μl of a 20-fold concentrated solution in a final volume of 200 μl, the final percentage of DMSO being 0.1%. The treated cells were incubated at 37° C., 5% CO2, for 72 hours. The incorporation of [^14C]-Thymidine was quantified in cpm units (counts per minute) by counting the radioactivity 72 hours after the start of the treatment, using a Micro-Beta radioactivity counter (Perkin-Elmer). The tests were performed in duplicate.
i) the mean±s.e.m. of each series of well replicates was calculated;
ii) the background noise is calculated by preparing cell-free, IGF1-free and untreated control wells; this control was performed in 4 replicates. The background noise was removed at each measurement;
iii) the maximum response is given by positive control wells containing cells in the presence of IGF1 but untreated; this control was performed in 4 replicates;
iv) the minimum response is given by negative control wells containing IGF1-free and untreated cells; this control was performed in 4 replicates;
The IC50 values were calculated by […] with the XLfit software (IDBS, UK) using formula 205.

In the case of `O=C(Nc1ccc2[nH]ncc2c1)N[C@@H](c1cc(F)cc(Cl)c1)[C@@H]1CCCCN1` [Ex 3, 1-{(S)-(3-Chloro-5-fluorophenyl)[(2S)-piperid-2-yl]methyl}-3-(1H-indazol-5-yl)urea], the IC50 [1] is reported as 100 to 500 nM, the IC50 (AKT1) is reported as under 100 nM and the IC50 [2] is reported as 790 nM.
`O=C(Nc1ccc2[nH]ncc2c1)N[C@@H](c1ccc(Cl)c(Cl)c1)[C@@H]1CCCCN1` [Ex 4, 1-{(S)-(3,4-Dichlorophenyl)[(2S)-piperid-2-yl]methyl}-3-(1H-indazol-5-yl)urea] gave an IC50 [1] of 100 to 500 nM, an IC50 (AKT1) of under 100 nM and an IC50 [2] of 500 nM.
In the case of `O=C(Nc1ccc2[nH]ncc2c1)NC(c1cc(F)cc(Cl)c1)C1CCCCN1` (stereo not drawn) [Ex 5, 1-[(3-Chloro-5-fluorophenyl)(piperid-2-yl)methyl]-3-(1H-indazol-5-yl)urea], the IC50 [1] is reported as 100 to 500 nM, the IC50 (AKT1) is reported as under 100 nM and the IC50 [2] is reported as under 100 nM.
For `CN1CCCCC1C(NC(=O)Nc1ccc2[nH]ncc2c1)c1cc(F)cc(Cl)c1` (stereo not drawn) [Ex 11, 1-[(3-Chloro-5-fluorophenyl)(1-methylpiperid-2-yl)methyl]-3-(1H-indazol-5-yl)urea], the IC50 [1] was 500 to 2000 nM, the IC50 (AKT1) was under 100 nM and the IC50 [2] was 2920 nM.
`CN1CCCCC1C(NC(=O)Nc1ccc2[nH]nc(-c3ccncc3)c2c1)c1ccccc1` [Ex 13, 1-[(1-Methylpiperid-2-yl)(phenyl)methyl]-3-(3-pyrid-4-yl-1H-indazol-5-yl)urea((S,2S),(R,2R))] gave an IC50 [1] of 500 to 2000 nM, an IC50 (AKT1) of 100 to 500 nM and an IC50 [2] of 5120 nM.
`Cc1n[nH]c2ccc(NC(=O)NC(c3ccccc3)C3CCCCN3C)cc12` [Ex 18, 3-Methyl-5-({[(1-methylpiperid-2-yl)(phenyl)methyl]carbamoyl}amino)-1H-indazole ((S,2S),(R,2R))] gave an IC50 [1] of 500 to 2000 nM, an IC50 (AKT1) of under 100 nM and an IC50 [2] of 290 nM.
For `CN1CCCCC1C(NC(=O)Nc1cc(F)c2[nH]ncc2c1)c1ccccc1` [Ex 21, 1-(7-Fluoro-1H-indazol-5-yl)-3-[(1-methylpiperid-2-yl)(phenyl)methyl]urea((S,2S),(R,2R))], the IC50 [1] was 500 to 2000 nM, the IC50 (AKT1) was 100 to 500 nM and the IC50 [2] was 2820 nM.
With `CN1CCCCC1C(NC(=O)Nc1ccc2[nH]nc(C#Cc3ccc(F)cc3)c2c1)c1ccccc1` [Ex 24, 1-{3-[(4-Fluorophenyl)ethynyl]-1H-indazol-5-yl}-3-[(1-methylpiperid-2-yl)(phenyl)methyl]urea((S,2S),(R,2R))] the IC50 [1] was 100 to 500 nM, the IC50 (AKT1) was under 100 nM and the IC50 [2] was 860 nM.
`CN1CCCCC1C(NC(=O)Nc1ccc2[nH]nc(C#Cc3cccnc3)c2c1)c1ccccc1` [Ex 25, 1-[(1-Methylpiperid-2-yl)(phenyl)methyl]-3-[3-(pyrid-3-ylethynyl)-1H-indazol-5-yl]urea((S,2S),(R,2R))] showed an IC50 [1] of 100 to 500 nM, an IC50 (AKT1) of under 100 nM and an IC50 [2] of 366 nM.
For `S=C(Nc1ccc2[nH]ncc2c1)N[C@@H](c1ccc(Cl)c(Cl)c1)[C@@H]1CCCCN1` [Ex 31, 1-{(S)-(3,4-Dichlorophenyl)[(2S)-piperid-2-yl]methyl}-3-(1H-indazol-5-yl)thiourea], the IC50 [1] was 100 to 500 nM, the IC50 (AKT1) was under 100 nM and the IC50 [2] was 1270 nM.
With `O=C(Nc1ccc2[nH]ncc2c1)OC(c1cc(Cl)cc(Cl)c1)C1CCCCN1` [Ex 34, (3,5-Dichlorophenyl)[piperid-2-yl]methyl 1H-indazol-5-ylcarbamate((S,2S),(R,2R))] the IC50 [1] was 500 to 2000 nM, the IC50 (AKT1) was under 100 nM and the IC50 [2] was 600 nM.
With `O=C(Nc1ccc2[nH]ncc2c1)O[C@@H](c1cc(F)cc(Cl)c1)[C@@H]1CCCCN1` [Ex 35, (S)-(3-Chloro-5-fluorophenyl)[(2S)-piperid-2-yl]methyl 1H-indazol-5-ylcarbamate] the IC50 [1] was 100 to 500 nM, the IC50 (AKT1) was under 100 nM and the IC50 [2] was 560 nM.
Compound `CN1CCCCC1C(OC(=O)Nc1ccc2[nH]ncc2c1)c1cc(F)cc(Cl)c1` (stereo not drawn) [Ex 36, (3-Chloro-5-fluorophenyl)(1-methylpiperid-2-yl)methyl 1H-indazol-5-ylcarbamate] has an IC50 [1] of 500 to 2000 nM, an IC50 (AKT1) of under 100 nM and an IC50 [2] of 770 nM.
In the case of `O=C(Nc1ccc2[nH]ncc2c1)O[C@H](c1ccc(Cl)c(Cl)c1)[C@H]1CCCCN1` [Ex 37, (R)-(3,4-Dichlorophenyl)[(2R)-piperid-2-yl]methyl 1H-indazol-5-ylcarbamate], the IC50 [1] is reported as 100 to 500 nM, the IC50 (AKT1) is reported as under 100 nM and the IC50 [2] is reported as 278 nM.
`O=C(Nc1ccc2[nH]ncc2c1)O[C@@H](c1ccc(Cl)c(Cl)c1)[C@@H]1CCCCN1` [Ex 38b, (S)-(3,4-Dichlorophenyl)[(2S)-piperid-2-yl]methyl 1H-indazol-5-ylcarbamate] showed an IC50 [1] of 100 to 500 nM, an IC50 (AKT1) of under 100 nM and an IC50 [2] of 963 nM.
Work on `O=C(Nc1ccc2[nH]ncc2c1)O[C@@H](c1cccc(Br)c1)[C@@H]1CCCCN1` [Ex 46] yielded an IC50 [1] of 100 to 500 nM, an IC50 (AKT1) of under 100 nM and an IC50 [2] of 546 nM.
